One experiment concerns B. fragilis 23745. The note with it: Bacteroides fragilis, 23745, in Mus musculus, po, 48 h, log CFU/ml liver homogenate, test compound.
Experiment [1] relates to Campylobacter fetus ss. jejuni ATCC 29428. Nature of the experiment: MIC vs panel of anaerobes. The format is cell-based. Conditions: ATCC29428, procedures of Example 40.
The subject of experiment [2] is Bacteroides melanogenicus NCTC 9336. Nature of the experiment: MIC vs panel of anaerobes. The format is cell-based. The note with it: NCTC9336, procedures of Example 40.
Experiment [3] deals with Costridium difficile NCIB 10666. In words: MIC vs panel of anaerobes. Type of experiment: cell-based, C. difficile. The note with it: Clostridioides difficile, NCIB10666, C. difficile NCIB 10666; procedures of Example 40; read-out: MIC.
Experiment [4] relates to Fusobacterium necrophorum ATCC 11295. In words: MIC vs panel of anaerobes. Conditions: Fusobacterium necrophorum, ATCC11295, Fusobacterium necrophorum ATCC 11295; procedures of Example 40; read-out: MIC. The format is cell-based.
The test system of the next experiment is Peptococcous magnus. In words: MIC vs panel of anaerobes. Type of experiment: cell-based. The note with it: procedures of Example 40.
The next experiment has as its system Peptostreptococcus. In words: MIC vs panel of anaerobes. Type of experiment: cell-based. The note with it: procedures of Example 40.
In the next experiment the test system is B. fragilis WS-1. Nature of the experiment: MIC/MBC against Bacteroides fragilis strain E. Conditions: for MBC: WS1, 99.9% reduction in viable count; for MIC: WS1, 48 h, 48 hours, 37° C., anaerobic. Type of experiment: cell-based. The protocol:
The screening panel utilized in this Example consisted of 5 strains of Bacteroides fragilis. All assays were carried out in 96-well microtitre plates. If an isolate was obtained from either a culture collection or clinical source, the isolate was immediately inoculated into Wilkens-Chalgren broth (Oxoid) and incubated at 37° C. in an anaerobic chamber in an atmosphere of 85% nitrogen, 10% carbon dioxide, and 5% hydrogen for 48 hours. At the end of this time, the viable count was about 10^12 organisms/ml broth. A 1 ml aliquot of each culture was placed in an ampoule and quick frozen in acetone-dry ice mixture and stored in liquid nitrogen. When an inoculum was utilized in an assay, one of the ampoules was thawed and diluted with fresh broth to yield a suspension having a count of 5×10^5 organisms/ml. A 100 μl aliquot of this suspension was inoculated into each well of the microtitre plate. A 2 mg sample of the test compound was dissolved in 0.2 ml of a suitable solvent such as dimethylsulfoxide, polyethylene glycol 200 or methanol. […] After addition of the test solution the final inoculum level was 10^5 cells/ml. The plates were incubated for 48 hours at 37° C. in the anaerobic chamber. The Minimum Inhibitory Concentration (MIC) was read visually. The MIC is defined as the lowest concentration at which there is no detectable growth. The Minimum Bactericidal Concentration (MBC) was determined by taking 50 μl aliquot from each well and placing it in fresh medium. […] The strains of Bacteroides fragilis utilized in the above procedure are identified by letter in accordance with the following legend: |E B. fragilis WS-1*

Experiment [5] concerns Clostridium perfringens NCTC 523. Nature of the experiment: microbe, parasite or virus in culture. Type of experiment: cell-based. Conditions: Clostridium perfringens, NCTC523, Clostridium perfringens NCTC 523; procedures of Example 40.
In experiment [6] the test system is Propionebacterium acnes NCTC 737. Nature of the experiment: MIC vs panel of anaerobes. The note with it: procedures of Example 40. Type of experiment: cell-based.
The mark [7] stands for this setting: read-out: DOSE GIVING 1 LOG REDUCTION (molar), p.o., after infection and twice daily for 2 days.
Where [8] appears, read: read-out: DOSE GIVING 1 LOG REDUCTION, p.o., after infection and twice daily for 2 days.

In brackets after ≈: the same amount, converted by molar mass. Like-named read-outs stand apart in the source and are kept apart here.

With `Cc1ccc(C2=[N+]([O-])c3cccnc3N3CC(C)(C)CN=C23)cc1` [Example 20, 2,3-Dihydro-2,2-dimethyl-5-(4-methylphenyl)-1H-pyrimido[1,2-a]pyrido[3,2-e]pyrazine 6-oxide], the ED (1 log reduction) with B. fragilis 23745 (setting [7]) came to 13 µmol/kg; in the experiment with B. fragilis 23745 (setting [8]), 4.2 mg/kg. Moreover, the MIC in experiment [1] was 25 µg/mL (≈ 78 µM); in experiment [2], 50 µg/mL (≈ 156 µM); in experiment [3] it was below 0.8 µg/mL; in experiment [4], 1.5 µg/mL (≈ 4.68 µM); with Peptococcous magnus, 25 µg/mL (≈ 78 µM); in the experiment on Peptostreptococcus, 50 µg/mL (≈ 156 µM). Moreover, the values for the MIC (against B. fragilis WS-1; in experiment [5]; in experiment [6]) were 1.5 µg/mL (≈ 4.68 µM), 1.5 µg/mL (≈ 4.68 µM) and above 100 µg/mL, respectively. For the same compound, in the experiment with B. fragilis WS-1, the MBC is below 0.8 µg/mL.
Regarding `CC1(C)CN=C2C(c3ccccc3)=[N+]([O-])c3ccncc3N2C1` [Example 14, 2,3-Dihydro-2,2-dimethyl-5-phenyl-1H-pyrimido[1,2-a]pyrido[4,3-e]pyrazine 6-oxide], the MIC in experiment [1] came to 100 µg/mL (≈ 326 µM); in [2], 100 µg/mL (≈ 326 µM); in experiment [3] it was 1.5 µg/mL (≈ 4.9 µM); in experiment [4], 25 µg/mL (≈ 81.6 µM); with Peptococcous magnus it was 100 µg/mL (≈ 326 µM); against Peptostreptococcus, 100 µg/mL (≈ 326 µM). Moreover, the MIC in the experiment on B. fragilis WS-1 was 3.1 µg/mL (≈ 10.1 µM); in [5], 25 µg/mL (≈ 81.6 µM); in experiment [6], above 100 µg/mL. In the experiment on B. fragilis WS-1, this compound came in with an MBC of 3.1 µg/mL (≈ 10.1 µM).
As to `CC1(C)CN=C2C(c3ccccc3)=[N+]([O-])c3cnccc3N2C1` [Example 15, 2,3-Dihydro-2,2-dimethyl-5-phenyl-1H-pyrimido[1,2-a]pyrido[3,4-e]pyrazine 6-oxide], the values for the ED (1 log reduction) in the experiment on B. fragilis 23745 (setting [7]) and in the experiment with B. fragilis 23745 (setting [8]) were 13.4 µmol/kg and 4.1 mg/kg, respectively. For the same compound, the MIC was 100 µg/mL (≈ 326 µM) in experiment [2]; 1.5 µg/mL (≈ 4.9 µM) in experiment [3]; below 0.8 µg/mL in experiment [4]; below 0.8 µg/mL in the experiment with Peptococcous magnus; 100 µg/mL (≈ 326 µM) in the experiment with Peptostreptococcus; below 0.8 µg/mL against B. fragilis WS-1. For the same compound, the MIC in experiment [5] was 1.5 µg/mL (≈ 4.9 µM); in experiment [6] it was above 100 µg/mL. The MBC in the experiment on B. fragilis WS-1 was found to be 1.5 µg/mL (≈ 4.9 µM).
For the compound `CC1(C)CN=C2C(c3ccccc3)=[N+]([O-])c3cccnc3N2C1` [Example 16, 2,3-Dihydro-2,2-dimethyl-5-phenyl-1H-pyrimido[1,2-a]pyrido[3,2-e]pyrazine 6-oxide], the figures for the ED (1 log reduction) in the experiment on B. fragilis 23745 (setting [7]) and with B. fragilis 23745 (setting [8]) were 2.6 µmol/kg and 0.8 mg/kg, respectively. In addition, the MIC in experiment [2] was 25 µg/mL (≈ 81.6 µM); in experiment [3], below 0.8 µg/mL; in experiment [4], below 0.8 µg/mL; in the experiment with Peptococcous magnus it was below 0.8 µg/mL; with Peptostreptococcus it was 25 µg/mL (≈ 81.6 µM); in the experiment on B. fragilis WS-1, below 0.8 µg/mL. In addition, the MIC is below 0.8 µg/mL in [5] and 100 µg/mL (≈ 326 µM) in [6]. In the experiment on B. fragilis WS-1, this compound had an MBC of 1.5 µg/mL (≈ 4.9 µM).
As to `CC1(C)CN=C2C(c3ccc(Cl)cc3)=[N+]([O-])c3cnccc3N2C1` [Example 17, 2,3-Dihydro-5-(4-chlorophenyl)-2,2-dimethyl-1H-pyrimido[1,2-a]pyrido[3,4-e]pyrazine 6-oxide], the ED (1 log reduction) in the experiment with B. fragilis 23745 (setting [7]) was found to be 9.3 µmol/kg; in the experiment with B. fragilis 23745 (setting [8]), 3.2 mg/kg. For the same compound, the MIC in [1] was 100 µg/mL (≈ 293 µM); in experiment [2] it was above 100 µg/mL; in [3], below 0.8 µg/mL; in experiment [4] it was 3.1 µg/mL (≈ 9.1 µM); against Peptostreptococcus, above 100 µg/mL; against B. fragilis WS-1, below 0.8 µg/mL. Moreover, the MIC in [5] was below 0.8 µg/mL; in experiment [6], above 100 µg/mL. The same compound gave an MBC against B. fragilis WS-1 below 0.8 µg/mL.
Consider `CC1(C)CN=C2C(c3ccc(Cl)cc3)=[N+]([O-])c3cccnc3N2C1` [Example 18, 2,3-Dihydro-5-(4-chlorophenyl)-2,2-dimethyl-1H-pyrimido[1,2-a]pyrido[3,2-e]pyrazine 6-oxide], for which the ED (1 log reduction) came out at 53.4 µmol/kg in the experiment on B. fragilis 23745 (setting [7]) and 17.4 mg/kg in the experiment on B. fragilis 23745 (setting [8]). Moreover, the MIC in [2] is 25 µg/mL (≈ 73.4 µM); in experiment [3] it was below 0.8 µg/mL; in experiment [4], below 0.8 µg/mL; in the experiment with Peptococcous magnus, below 0.8 µg/mL; against Peptostreptococcus it was 25 µg/mL (≈ 73.4 µM); in the experiment on B. fragilis WS-1, below 0.8 µg/mL. Besides, the MIC in experiment [5] is below 0.8 µg/mL; in [6], 100 µg/mL (≈ 293 µM). Moreover, the MBC against B. fragilis WS-1 is below 0.8 µg/mL.
As to `COc1ccc(C2=[N+]([O-])c3cccnc3N3CC(C)(C)CN=C23)cc1OC` [Example 22, 2,3-Dihydro-5-(3,4-dimethoxyphenyl)-2,2-dimethyl-1H-pyrimido[1,2-a]pyrido[3,2-e]pyrazine 6-oxide], the ED (1 log reduction) in the experiment on B. fragilis 23745 (setting [7]) came out at 7.3 µmol/kg; in the experiment on B. fragilis 23745 (setting [8]), 2.7 mg/kg. The MIC in [1] is 50 µg/mL (≈ 136 µM); in experiment [2], above 100 µg/mL; in experiment [3], below 0.8 µg/mL; in [4] it was below 0.8 µg/mL; in the experiment with Peptostreptococcus, 100 µg/mL (≈ 273 µM); with B. fragilis WS-1 it was below 0.8 µg/mL. In addition, the MIC in experiment [5] was below 0.8 µg/mL; in experiment [6], above 100 µg/mL. For the same compound, the MBC with B. fragilis WS-1 was below 0.8 µg/mL.

Broadly, the MBC is the lowest tested concentration that kills the bacteria rather than only halting them.

(Values after patent US4761414A, “Substituted 1H-pyrimido[1,2-a-]-pyrido[3,4-e]pyrazine 6 oxides” (G. D. Searle & Co., priority 1986, dated 1988).)
